Test results: the NIST ThermoML archive (doi:10.1016/j.jct.2007.05.010)
± gives the expanded uncertainty stated by the source.

How the values were obtained:
[1] = 298.15 K, 101 kPa, Liquid; for speed of sound: Sing-around technique in a fixed-path interferometer
[2] = mn = molality of the nth substance listed, in mol/kg; details: 298.15 K, 101 kPa, Liquid; for speed of sound: Sing-around technique in a fixed-path interferometer

OCCO [1,2-ethanediol]
[1]
Details	mass density [kg/m3]	speed of sound [m/s]
–	1109.41 ± 0.69	1656.1 ± 1.7

OCCO [1,2-ethanediol] + O
[2]
Details	mass density [kg/m3]	speed of sound [m/s]
m2 = 0	1109.41 ± 0.69	1656.1 ± 1.7
m2 = 0.1028	1109.35 ± 0.69	1656.9 ± 1.7
m2 = 0.2175	1109.25 ± 0.69	1657.7 ± 1.7
m2 = 0.3155	1109.22 ± 0.69	1658.6 ± 1.7
m2 = 0.3759	1109.06 ± 0.69	1658.7 ± 1.7
m2 = 0.7031	1108.82 ± 0.68	1660.5 ± 1.7
m2 = 0.808	1108.62 ± 0.68	1661.4 ± 1.7
m2 = 0.9282	1108.2 ± 0.68	1661.8 ± 1.7
m2 = 1.035	1108.14 ± 0.68	1662.3 ± 1.7
m2 = 1.132	1108.1 ± 0.68	1662.7 ± 1.7

CC(O)CO (stereo not given) [1,2-propanediol]
[1]
Details	mass density [kg/m3]	speed of sound [m/s]
–	1032.87 ± 0.23	1510.6 ± 1.4

CC(O)CO (stereo not given) [1,2-propanediol] + O
[2]
Details	mass density [kg/m3]	speed of sound [m/s]
m2 = 0	1032.87 ± 0.23	1510.6 ± 1.4
m2 = 0.2187	1033.12 ± 0.23	1512.9 ± 1.4
m2 = 0.5592	1033.53 ± 0.24	1516.4 ± 1.4
m2 = 0.6141	1033.58 ± 0.24	1516.5 ± 1.4
m2 = 0.7341	1033.67 ± 0.24	1517.5 ± 1.4
m2 = 0.8421	1033.73 ± 0.24	1519.4 ± 1.4
m2 = 0.9215	1033.86 ± 0.24	1519.9 ± 1.4
m2 = 1.023	1033.94 ± 0.24	1521.5 ± 1.4

CC1COC(=O)O1 (stereo not given) [4-methyl-1,3-dioxolan-2-one]
[1]
Details	mass density [kg/m3]	speed of sound [m/s]
–	1198.64 ± 0.94	1443.4 ± 1.6

CC1COC(=O)O1 (stereo not given) [4-methyl-1,3-dioxolan-2-one] + O
[2]
Details	mass density [kg/m3]	speed of sound [m/s]
m2 = 0	1198.64 ± 0.94	1443.4 ± 1.6
m2 = 0.2538	1197.46 ± 0.93	1444.9 ± 1.6
m2 = 0.2969	1197.24 ± 0.93	1445.2 ± 1.6
m2 = 0.3438	1196.97 ± 0.93	1445.4 ± 1.6
m2 = 0.3895	1196.74 ± 0.93	1445.6 ± 1.6
m2 = 0.4879	1196.22 ± 0.93	1446 ± 1.6
m2 = 0.5765	1195.77 ± 0.93	1446.6 ± 1.6
m2 = 0.6743	1195.27 ± 0.93	1447.2 ± 1.6
m2 = 0.7678	1194.8 ± 0.92	1447.6 ± 1.6
